Experiments:
Escherichia coli [1] = test: Antibacterial activity against Escherichia coli ATCC 25922 assessed as reduction in bacterial growth incubated for 18 hrs by broth microdilution assay; assay type: functional
Pseudomonas aeruginosa [2] = test: Antibacterial activity against Pseudomonas aeruginosa ATCC 27853 assessed as reduction in bacterial growth incubated for 18 hrs by broth microdilution assay; assay type: functional
[3] = tested on: Staphylococcus epidermidis; test: Antibacterial activity against methicillin-susceptible Staphylococcus epidermidis CANWARD 81388 assessed as reduction in bacterial growth incubated for 18 hrs by broth microdilution assay; assay type: functional
Escherichia coli [4] = test: Antibacterial activity against gentamicin-resistant Escherichia coli CAN-ICU 61714 assessed as reduction in bacterial growth incubated for 18 hrs by broth microdilution assay; assay type: functional
Escherichia coli [5] = test: Antibacterial activity against gentamicin, tobramycin, ciprofloxacin-resistant Escherichia coli ATCC 97615 harboring aac(3')IIa gene assessed as reduction in bacterial growth incubated for 18 hrs by broth microdilution assay; assay type: functional
Pseudomonas aeruginosa [6] = test: Antibacterial activity against gentamicin, tobramycin-resistant Pseudomonas aeruginosa CANWARD 96846 assessed as reduction in bacterial growth incubated for 18 hrs by broth microdilution assay; assay type: functional
[7] = tested on: Stenotrophomonas maltophilia; test: Antibacterial activity against Stenotrophomonas maltophilia CAN-ICU 62584 assessed as reduction in bacterial growth incubated for 18 hrs by broth microdilution assay; assay type: functional
Pseudomonas aeruginosa [8] = test: Antibacterial activity against wild type Pseudomonas aeruginosa PAO1 assessed as reduction in bacterial growth incubated for 18 hrs by broth microdilution assay; assay type: functional
Pseudomonas aeruginosa [9] = test: Antibacterial activity against Pseudomonas aeruginosa PAO1 assessed as reduction in bacterial growth by measuring aztreonam MIC at <=10 uM in presence of aztreonam incubated for 18 hrs by broth microdilution assay based checkerboard assay (reference value: 4 microg/ml); assay type: functional; conditions: dose microM <=10
Pseudomonas aeruginosa [10] = test: Antibacterial activity against Pseudomonas aeruginosa PAO1 assessed as reduction in bacterial growth by measuring erythromycin MIC at <=10 uM in presence of erythromycin incubated for 18 hrs by broth microdilution assay based checkerboard assay (reference value: 256 microg/ml); assay type: functional; conditions: dose microM <=10
Pseudomonas aeruginosa [11] = test: Antibacterial activity against Pseudomonas aeruginosa PAO1 assessed as fractional inhibitory concentration index in presence of Linezolid incubated for 18 hrs by broth microdilution assay based checkerboard assay; assay type: functional
Pseudomonas aeruginosa [12] = test: Antibacterial activity against Pseudomonas aeruginosa PAO1 assessed as fractional inhibitory concentration index in presence of Aztreonam incubated for 18 hrs by broth microdilution assay based checkerboard assay; assay type: functional
Pseudomonas aeruginosa [13] = test: Antibacterial activity against Pseudomonas aeruginosa PAO1 assessed as fractional inhibitory concentration index in presence of Ceftazidime incubated for 18 hrs by broth microdilution assay based checkerboard assay; assay type: functional
Pseudomonas aeruginosa [14] = test: Antibacterial activity against Pseudomonas aeruginosa PAO1 assessed as fractional inhibitory concentration index in presence of Clindamycin incubated for 18 hrs by broth microdilution assay based checkerboard assay; assay type: functional
Pseudomonas aeruginosa [15] = test: Antibacterial activity against Pseudomonas aeruginosa PAO1 assessed as fractional inhibitory concentration index in presence of Pleuromutilin incubated for 18 hrs by broth microdilution assay based checkerboard assay; assay type: functional
Pseudomonas aeruginosa [16] = test: Antibacterial activity against Pseudomonas aeruginosa 260-97103 assessed as fractional inhibitory concentration index in presence of chloramphenicol incubated for 18 hrs by broth microdilution assay; assay type: functional
Pseudomonas aeruginosa [17] = test: Antibacterial activity against Pseudomonas aeruginosa 114228 assessed as fractional inhibitory concentration index in presence of chloramphenicol incubated for 18 hrs by broth microdilution assay; assay type: functional
Acinetobacter baumannii [18] = test: Antibacterial activity against Acinetobacter baumannii ATCC 17978 assessed as fractional inhibitory concentration index in presence of doxycycline incubated for 18 hrs by broth microdilution assay; assay type: functional
Acinetobacter baumannii [19] = test: Antibacterial activity against Acinetobacter baumannii ATCC 17978 assessed as potentiation of chloramphenicol-induced antibacterial activity by measuring chloramphenicol MIC at 10 uM incubated for 18 hrs in presence of chloramphenicol by broth microdilution assay (reference value: 64 ug/ml); assay type: functional
Acinetobacter baumannii [20] = test: Antibacterial activity against Acinetobacter baumannii ATCC 17978 assessed as fractional inhibitory concentration index in presence of chloramphenicol incubated for 18 hrs by broth microdilution assay; assay type: functional
Klebsiella pneumoniae [21] = test: Antibacterial activity against Klebsiella pneumoniae ATCC 16381 assessed as fractional inhibitory concentration index in presence of doxycycline incubated for 18 hrs by broth microdilution assay; assay type: functional
Klebsiella pneumoniae [22] = test: Antibacterial activity against Klebsiella pneumoniae ATCC 16381 assessed as potentiation of chloramphenicol-induced antibacterial activity by measuring chloramphenicol MIC at 10 uM incubated for 18 hrs in presence of chloramphenicol by broth microdilution assay (reference value: 1024 ug/ml); assay type: functional
Enterobacter cloacae [23] = test: Antibacterial activity against Enterobacter cloacae ATCC 117029 assessed as potentiation of doxycycline-induced antibacterial activity by measuring doxycycline MIC at 10 uM incubated for 18 hrs in presence of doxycycline by broth microdilution assay (reference value: 64 ug/ml); assay type: functional
Enterobacter cloacae [24] = test: Antibacterial activity against Enterobacter cloacae ATCC 117029 assessed as fractional inhibitory concentration index in presence of doxycycline incubated for 18 hrs by broth microdilution assay; assay type: functional
Escherichia coli [25] = test: Antibacterial activity against Escherichia coli ATCC 25922 assessed as fractional inhibitory concentration index in presence of chloramphenicol incubated for 18 hrs by broth microdilution assay; assay type: functional
Acinetobacter baumannii [26] = test: Antibacterial activity against Acinetobacter baumannii ATCC 17978 assessed as reduction in bacterial growth incubated for 18 hrs by broth microdilution assay; assay type: functional
Klebsiella pneumoniae [27] = test: Antibacterial activity against Klebsiella pneumoniae ATCC 16381 assessed as reduction in bacterial growth incubated for 18 hrs by broth microdilution assay; assay type: functional
Pseudomonas aeruginosa [28] = test: Antibacterial activity against Pseudomonas aeruginosa 101885 assessed as reduction in bacterial growth incubated for 18 hrs by broth microdilution assay; assay type: functional
Pseudomonas aeruginosa [29] = test: Antibacterial activity against Pseudomonas aeruginosa 262-101856 assessed as reduction in bacterial growth incubated for 18 hrs by broth microdilution assay; assay type: functional
Pseudomonas aeruginosa [30] = test: Antibacterial activity against Pseudomonas aeruginosa 264-101354 assessed as reduction in bacterial growth incubated for 18 hrs by broth microdilution assay; assay type: functional
Pseudomonas aeruginosa [31] = test: Potentiation of chloramphenicol-induced antibacterial activity against Pseudomonas aeruginosa 260-97103 incubated for 18 hrs in presence of chloramphenicol by broth microdilution assay; assay type: functional, organism-based; conditions: dose 1-32 µg/ml
Pseudomonas aeruginosa [32] = test: Potentiation of doxycycline-induced antibacterial activity against Pseudomonas aeruginosa PAO1 incubated for 18 hrs in presence of doxycycline by broth microdilution assay; assay type: functional, organism-based; conditions: dose 1-32 µg/ml
Pseudomonas aeruginosa [33] = test: Potentiation of chloramphenicol-induced antibacterial activity against Pseudomonas aeruginosa PAO1 incubated for 18 hrs in presence of chloramphenicol by broth microdilution assay; assay type: functional, organism-based; conditions: dose 1-32 µg/ml

CO[C@H]1/C=C/O[C@@]2(C)Oc3c(C)c(O)c4c(O)c(c(/C=N/N5CCN(Cc6cn(CCCCCCO[C@@H]7[C@@H](O[C@H]8O[C@H](CO)[C@@H](O)[C@H](N)[C@H]8O)[C@H](N)C[C@H](N)[C@H]7O[C@H]7O[C@H](CN)[C@@H](O)C[C@H]7N)nn6)CC5)c(O)c4c3C2=O)NC(=O)/C(C)=C\C=C\[C@H](C)[C@H](O)[C@@H](C)[C@@H](O)[C@@H](C)[C@H](OC(C)=O)[C@@H]1C.Cl.Cl.Cl.Cl.Cl
MIC (Escherichia coli [1]): ≥ 32 µg/mL
MIC (Pseudomonas aeruginosa [2]): > 32 µg/mL
MIC [3]: 4 µg/mL
MIC (Escherichia coli [4]): > 32 µg/mL
MIC (Escherichia coli [5]): > 32 µg/mL
MIC (Pseudomonas aeruginosa [6]): > 32 µg/mL
MIC [7]: > 32 µg/mL
MIC (Pseudomonas aeruginosa [8]): 512 µg/mL
MIC (Pseudomonas aeruginosa [9]): 4 µg/mL
MIC (Pseudomonas aeruginosa [10]): 32 µg/mL
fractional inhibitory concentration index (FICI) (Pseudomonas aeruginosa [11]): 0.15
fractional inhibitory concentration index (FICI) (Pseudomonas aeruginosa [12]): 1.03
fractional inhibitory concentration index (FICI) (Pseudomonas aeruginosa [13]): 1.03
fractional inhibitory concentration index (FICI) (Pseudomonas aeruginosa [14]): 0.28
fractional inhibitory concentration index (FICI) (Pseudomonas aeruginosa [15]): 0.28
fractional inhibitory concentration index (FICI) (Pseudomonas aeruginosa [16]): <0.141
fractional inhibitory concentration index (FICI) (Pseudomonas aeruginosa [17]): <0.281
fractional inhibitory concentration index (FICI) (Acinetobacter baumannii [18]): 1.25
MIC (Acinetobacter baumannii [19]): 32 µg/mL
fractional inhibitory concentration index (FICI) (Acinetobacter baumannii [20]): 0.75
fractional inhibitory concentration index (FICI) (Klebsiella pneumoniae [21]): <0.516
MIC (Klebsiella pneumoniae [22]): 256 µg/mL
MIC (Enterobacter cloacae [23]): 16 µg/mL
fractional inhibitory concentration index (FICI) (Enterobacter cloacae [24]): 0.5
fractional inhibitory concentration index (FICI) (Escherichia coli [25]): 0.75
MIC (Acinetobacter baumannii [26]): 64 µg/mL
MIC (Klebsiella pneumoniae [27]): > 128 µg/mL
MIC (Pseudomonas aeruginosa [28]): 256 µg/mL
MIC (Pseudomonas aeruginosa [29]): > 256 µg/mL
MIC (Pseudomonas aeruginosa [30]): 256 µg/mL
Activity (Pseudomonas aeruginosa [31]): Dose-dependent effect
Activity (Pseudomonas aeruginosa [32]): Dose-dependent effect
Activity (Pseudomonas aeruginosa [33]): Dose-dependent effect

CO[C@H]1/C=C/O[C@@]2(C)Oc3c(C)c(O)c4c(O)c(c(/C=N/N5CCN(Cc6cn(CCCCCCCCCCCCO[C@@H]7[C@@H](O[C@H]8O[C@H](CO)[C@@H](O)[C@H](N)[C@H]8O)[C@H](N)C[C@H](N)[C@H]7O[C@H]7O[C@H](CN)[C@@H](O)C[C@H]7N)nn6)CC5)c(O)c4c3C2=O)NC(=O)/C(C)=C\C=C\[C@H](C)[C@H](O)[C@@H](C)[C@@H](O)[C@@H](C)[C@H](OC(C)=O)[C@@H]1C.O=C(O)C(F)(F)F.O=C(O)C(F)(F)F.O=C(O)C(F)(F)F.O=C(O)C(F)(F)F.O=C(O)C(F)(F)F
MIC (Escherichia coli [1]): 16 µg/mL
MIC (Pseudomonas aeruginosa [2]): > 32 µg/mL
MIC [3]: 4 µg/mL
MIC (Escherichia coli [4]): > 32 µg/mL
MIC (Escherichia coli [5]): 32 µg/mL
MIC (Pseudomonas aeruginosa [6]): > 32 µg/mL
MIC [7]: > 32 µg/mL
MIC (Pseudomonas aeruginosa [8]): 512 µg/mL
MIC (Pseudomonas aeruginosa [9]): 4 µg/mL
MIC (Pseudomonas aeruginosa [10]): 8 µg/mL
fractional inhibitory concentration index (FICI) (Pseudomonas aeruginosa [11]): 0.28
fractional inhibitory concentration index (FICI) (Pseudomonas aeruginosa [12]): 1.03
fractional inhibitory concentration index (FICI) (Pseudomonas aeruginosa [13]): 1.03
fractional inhibitory concentration index (FICI) (Pseudomonas aeruginosa [14]): 0.26
fractional inhibitory concentration index (FICI) (Pseudomonas aeruginosa [15]): 0.53
fractional inhibitory concentration index (FICI) (Pseudomonas aeruginosa [16]): <0.129
fractional inhibitory concentration index (FICI) (Pseudomonas aeruginosa [17]): <0.156
fractional inhibitory concentration index (FICI) (Acinetobacter baumannii [18]): 1.25
MIC (Acinetobacter baumannii [19]): 64 µg/mL
fractional inhibitory concentration index (FICI) (Acinetobacter baumannii [20]): 0.75
fractional inhibitory concentration index (FICI) (Klebsiella pneumoniae [21]): <0.516
MIC (Klebsiella pneumoniae [22]): 256 µg/mL
MIC (Enterobacter cloacae [23]): 32 µg/mL
fractional inhibitory concentration index (FICI) (Enterobacter cloacae [24]): 0.375
fractional inhibitory concentration index (FICI) (Escherichia coli [25]): 0.625
MIC (Acinetobacter baumannii [26]): 64 µg/mL
MIC (Klebsiella pneumoniae [27]): > 128 µg/mL
MIC (Pseudomonas aeruginosa [28]): 256 µg/mL
MIC (Pseudomonas aeruginosa [29]): > 256 µg/mL
MIC (Pseudomonas aeruginosa [30]): 256 µg/mL
Activity (Pseudomonas aeruginosa [31]): Dose-dependent effect
Activity (Pseudomonas aeruginosa [32]): Dose-dependent effect
Activity (Pseudomonas aeruginosa [33]): Dose-dependent effect

— ChEMBL document CHEMBL4715829, “Heterodimeric Rifampicin-Tobramycin conjugates break intrinsic resistance of Pseudomonas aeruginosa to doxycycline and chloramphenicol in vitro and in a Galleria mellonella in vivo model” (Eur J Med Chem, 2019)
